Test results reported in patent US20230146395A1, “Substituted Pyrimidines and Uses Thereof” (Verge Analytics, Inc., priority 2020, published 2023).
Where a name gives a salt, the structure may show the parent alone.

Target: T1, Full length human recombinant PIKFYVE (Homo sapiens, UniProt Q9Y2I7)
T1 construct: Full length human recombinant PIKFYVE; purchased Carna Biosciences (Kobe, Japan); host or cells: baculovirus expression system
Assay: Inhibition of PIKfyve (microfluidic electrophoresis kinase assay, PI3P/PS substrate)
Assay type: biochemical
Details: 12 concentrations
Experimental: Full length human recombinant PIKFYVE expressed in baculovirus expression system as N-terminal GST-fusion protein (265 kDa) was obtained from Carna Biosciences (Kobe, Japan). The kinase substrate was prepared by mixing and sonicating fluorescently-labeled phosphatidylinositol 3-phosphate (PI3P) with phospho-L-serine (PS) at a 1:10 ratio in 50 mM HEPES buffer pH 7.5.
The kinase reactions were assembled in 384-well plates (Greiner) in a total volume of […] as follows. Kinase protein was pre-diluted in an assay buffer comprising 25 mM HEPES, pH 7.5, 1 mM DTT, 2.5 mM MgCl2, and 2.5 mM MnCl2, and 0.005% Triton X-100, and dispensed into a 384-well plate (10 μL per well). Test compounds were serially pre-diluted in DMSO and added to the protein samples by acoustic dispensing (Labcyte Echo). The concentration of DMSO was equalized to 1% in all samples. All test compounds were tested at 12 concentrations. Apilimod was used as a reference compound and was tested in identical manner in each assay plate. Control samples (0%-inhibition, in the absence of inhibitor, DMSO only) and 100%-inhibition (in the absence of enzyme) were assembled in replicates of four and were used to calculate %-inhibition in the presence of compounds. The reactions were initiated by addition of 10 μL of 2×PI3P/PS substrate supplemented with ATP. The final concentration of enzyme was 2 nM, the final concentration of ATP was […], and the final concentration of PI3P/PS substrate was 1 μM (PI3P). The kinase reactions were allowed to proceed for 3 h at room temperature. Following incubation, the reactions were quenched by addition of […] of termination buffer (100 mM HEPES, pH 7.5, 0.01% Triton X-100, 20 mM EDTA). Terminated plates were analyzed on a microfluidic electrophoresis instrument (Caliper LabChip® 3000, Caliper Life Sciences/Perkin Elmer). The change in the relative fluorescence intensity of the PI(3)P substrate and PI(3,5)P product peaks was measured. The activity in each test sample was determined as the product to sum ratio (PSR): P/(S+P), where P is the peak height of the product, and S is the peak height of the substrate. Percent inhibition (Pinh) was determined using the following equation:
Pinh=(PSR0% inh−PSRcompound)/(PSR0% inh−PSR100% inh)*100
in which PSRcompound is the product/sum ratio in the presence of compound, PSR0% inh is the product/sum ratio in the absence of compound, and the PSR100% inh is the product/sum ratio in the absence of the enzyme.

T1 sequence (Q9Y2I7 whole entry): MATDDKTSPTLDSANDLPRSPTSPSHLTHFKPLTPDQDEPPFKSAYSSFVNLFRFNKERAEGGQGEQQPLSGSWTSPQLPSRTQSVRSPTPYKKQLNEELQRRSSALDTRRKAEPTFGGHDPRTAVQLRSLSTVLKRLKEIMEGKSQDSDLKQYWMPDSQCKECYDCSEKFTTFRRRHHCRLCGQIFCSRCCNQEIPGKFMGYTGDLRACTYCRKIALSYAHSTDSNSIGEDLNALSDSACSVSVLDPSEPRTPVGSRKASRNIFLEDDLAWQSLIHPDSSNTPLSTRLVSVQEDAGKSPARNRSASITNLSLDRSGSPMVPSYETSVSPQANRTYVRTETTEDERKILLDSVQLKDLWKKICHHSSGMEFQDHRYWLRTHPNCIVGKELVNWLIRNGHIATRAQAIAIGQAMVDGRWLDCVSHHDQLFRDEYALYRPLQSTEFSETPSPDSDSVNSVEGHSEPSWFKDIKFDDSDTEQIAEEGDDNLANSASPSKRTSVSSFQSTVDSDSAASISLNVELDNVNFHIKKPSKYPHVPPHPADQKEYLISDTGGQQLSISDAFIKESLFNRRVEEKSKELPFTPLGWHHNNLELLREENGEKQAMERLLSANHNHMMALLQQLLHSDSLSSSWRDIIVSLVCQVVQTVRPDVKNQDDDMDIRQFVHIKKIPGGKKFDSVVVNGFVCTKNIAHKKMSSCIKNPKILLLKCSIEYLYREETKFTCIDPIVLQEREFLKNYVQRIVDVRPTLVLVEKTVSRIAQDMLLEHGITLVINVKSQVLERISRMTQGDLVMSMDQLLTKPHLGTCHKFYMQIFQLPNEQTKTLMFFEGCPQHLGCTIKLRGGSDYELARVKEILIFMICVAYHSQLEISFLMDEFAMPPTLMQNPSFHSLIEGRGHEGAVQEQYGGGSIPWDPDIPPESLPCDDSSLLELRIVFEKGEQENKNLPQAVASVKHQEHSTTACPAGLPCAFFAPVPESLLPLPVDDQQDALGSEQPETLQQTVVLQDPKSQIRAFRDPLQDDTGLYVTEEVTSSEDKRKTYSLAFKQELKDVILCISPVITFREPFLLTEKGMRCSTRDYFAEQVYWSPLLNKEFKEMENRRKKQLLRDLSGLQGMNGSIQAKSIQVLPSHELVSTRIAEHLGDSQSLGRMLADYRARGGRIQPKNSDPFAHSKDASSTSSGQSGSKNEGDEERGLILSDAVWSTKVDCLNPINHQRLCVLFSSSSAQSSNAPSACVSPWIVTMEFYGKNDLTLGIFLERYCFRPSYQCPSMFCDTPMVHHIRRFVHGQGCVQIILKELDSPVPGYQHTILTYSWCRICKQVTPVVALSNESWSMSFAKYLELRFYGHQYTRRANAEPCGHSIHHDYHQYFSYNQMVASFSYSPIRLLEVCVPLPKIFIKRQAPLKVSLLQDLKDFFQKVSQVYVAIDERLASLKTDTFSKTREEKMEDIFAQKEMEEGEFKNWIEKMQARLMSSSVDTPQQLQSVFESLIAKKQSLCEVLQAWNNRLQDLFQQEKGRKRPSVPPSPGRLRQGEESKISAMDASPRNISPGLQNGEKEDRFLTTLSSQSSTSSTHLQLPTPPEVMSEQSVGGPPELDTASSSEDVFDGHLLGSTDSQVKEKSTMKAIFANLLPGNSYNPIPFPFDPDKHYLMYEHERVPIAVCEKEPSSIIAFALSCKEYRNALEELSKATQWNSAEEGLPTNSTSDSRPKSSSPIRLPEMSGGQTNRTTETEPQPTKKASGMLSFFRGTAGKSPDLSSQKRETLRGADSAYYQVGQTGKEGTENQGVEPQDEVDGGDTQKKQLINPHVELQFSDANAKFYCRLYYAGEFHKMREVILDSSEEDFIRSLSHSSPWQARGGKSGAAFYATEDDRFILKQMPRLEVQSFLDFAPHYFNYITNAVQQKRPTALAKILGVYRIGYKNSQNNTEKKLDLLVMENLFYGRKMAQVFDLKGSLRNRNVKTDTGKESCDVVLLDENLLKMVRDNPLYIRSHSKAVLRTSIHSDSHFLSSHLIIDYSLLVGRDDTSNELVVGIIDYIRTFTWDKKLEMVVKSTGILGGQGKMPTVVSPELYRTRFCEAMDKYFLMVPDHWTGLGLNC

| SMILES | IC50 [nM] |
| --- | --- |
| c1cncc(-c2cc3nc(Nc4cc(-c5ccncc5)n[nH]4)nc(N4CCOCC4)c3o2)c1 [Compound 31, 4-morpholino-6-(3-pyridyl)-N-[5-(4-pyridyl)-1H-pyrazol-3-yl]furo[3,2-d]pyrimidin-2-amine, hydrogen chloride] | 369 |
| c1ccc(-c2cnn(-c3nc(N4CCOCC4)c4oc(-c5ccncc5)cc4n3)c2)cc1 [Compound 41, 4-morpholino-2-(4-phenylpyrazol-1-yl)-6-(4-pyridyl)furo[3,2-d]pyrimidine, hydrogen chloride] | 34 |
| Cc1cccc(-c2cnn(-c3nc(N4CCOCC4)c4oc(-c5ccncc5)cc4n3)c2)c1 [Compound 42, 4-morpholino-6-(pyridin-4-yl)-2-(4-(m-tolyl)-1H-pyrazol-1-yl)furo[3,2-d]pyrimidine] | 9 |
| c1ccc(-c2cc(Nc3nc(N4CCOCC4)c4oc(-c5ccncc5)cc4n3)on2)cc1 [Compound 44, 4-morpholino-N-(3-phenylisoxazol-5-yl)-6-(pyridin-4-yl)furo[3,2-d]pyrimidin-2-amine] | 2 |
| c1ccc(-c2coc(Nc3nc(N4CCOCC4)c4oc(-c5ccncc5)cc4n3)n2)cc1 [Compound 45, 4-morpholino-N-(4-phenyloxazol-2-yl)-6-(4-pyridyl)furo[3,2-d]pyrimidin-2-amine, hydrogen chloride] | 48 |
| c1ccc(-c2cnc(Nc3nc(N4CCOCC4)c4oc(-c5ccncc5)cc4n3)o2)cc1 [Compound 46, 4-morpholino-N-(5-phenyloxazol-2-yl)-6-(4-pyridyl)furo[3,2-d]pyrimidin-2-amine, hydrogen chloride] | 107 |
| c1ccc(-c2nnc(Nc3nc(N4CCOCC4)c4oc(-c5ccncc5)cc4n3)o2)cc1 [Compound 47, 4-morpholino-N-(5-phenyl-1,3,4-oxadiazol-2-yl)-6-(4-pyridyl)furo[3,2-d]pyrimidin-2-amine, hydrogen chloride] | 52 |
| c1ccc(-n2ccc(Nc3nc(N4CCOCC4)c4oc(-c5ccncc5)cc4n3)n2)cc1 [Compound 48, 4-morpholino-N-(1-phenylpyrazol-3-yl)-6-(4-pyridyl)furo[3,2-d]pyrimidin-2-amine, hydrogen chloride] | 32 |
| c1ccc(-n2cc(Nc3nc(N4CCOCC4)c4oc(-c5ccncc5)cc4n3)cn2)cc1 [Compound 49, 4-morpholino-N-(1-phenylpyrazol-4-yl)-6-(4-pyridyl)furo[3,2-d]pyrimidin-2-amine, hydrogen chloride] | 21 |
| c1ccc2c(Nc3nc(N4CCOCC4)c4oc(-c5ccncc5)cc4n3)n[nH]c2c1 [Compound 50, N-(1H-indazol-3-yl)-4-morpholino-6-(pyridin-4-yl)furo[3,2-d]pyrimidin-2-amine hydrochloride] | 835 |
| c1ccn2nc(Nc3nc(N4CCOCC4)c4oc(-c5ccncc5)cc4n3)cc2c1 [Compound 51, 4-morpholino-N-pyrazolo[1,5-a]pyridin-2-yl-6-(4-pyridyl)furo[3,2-d]pyrimidin-2-amine, hydrogen chloride] | 88 |
| NC(=O)c1cc2nc(Nc3cc(-c4ccccc4)n[nH]3)nc(N3CCOCC3)c2o1 [Compound 52, 4-morpholino-2-((3-phenyl-1H-pyrazol-5-yl)amino)furo[3,2-d]pyrimidine-6-carboxamide hydrochloride] | 47 |
| O=C(c1cc2nc(Nc3cc(-c4ccccc4)[nH]n3)nc(N3CCOCC3)c2o1)N1CCCC1 [Compound 54, [4-morpholino-2-[(5-phenyl-1H-pyrazol-3-yl)amino]furo[3,2-d]pyrimidin-6-yl]-pyrrolidin-1-yl-methanone; hydrogen chloride] | 66 |
| CCN(C)C(=O)c1cc2nc(Nc3cc(-c4ccccc4)[nH]n3)nc(N3CCOCC3)c2o1 [Compound 57, N-ethyl-N-methyl-4-morpholino-2-[(5-phenyl-1H-pyrazol-3-yl)amino]furo[3,2-d]pyrimidine-6-carboxamide, hydrogen chloride] | 37 |
| CONC(=O)c1cc2nc(Nc3cc(-c4ccccc4)[nH]n3)nc(N3CCOCC3)c2o1 [Compound 58, N-methoxy-4-morpholino-2-[(5-phenyl-1H-pyrazol-3-yl)amino]furo[3,2-d]pyrimidine-6-carboxamide, hydrogen chloride] | 95 |
| O=C(NC1CC1)c1cc2nc(Nc3cc(-c4ccccc4)[nH]n3)nc(N3CCOCC3)c2o1 [Compound 59] | 4.3 |
| CN(C(=O)c1cc2nc(Nc3cc(-c4ccccc4)[nH]n3)nc(N3CCOCC3)c2o1)C1CC1 [Compound 60, N-cyclopropyl-N-methyl-4-morpholino-2-[(5-phenyl-1H-pyrazol-3-yl)amino]furo[3,2-d]pyrimidine-6-carboxamide, hydrogen chloride] | 70.2 |
| O=C(NCC1CC1)c1cc2nc(Nc3cc(-c4ccccc4)[nH]n3)nc(N3CCOCC3)c2o1 [Compound 61, N-(cyclopropylmethyl)-4-morpholino-2-[(5-phenyl-1H-pyrazol-3-yl)amino]furo[3,2-d]pyrimidine-6-carboxamide, hydrogen chloride] | 2.5 |
| CN(CC1CC1)C(=O)c1cc2nc(Nc3cc(-c4ccccc4)[nH]n3)nc(N3CCOCC3)c2o1 [Compound 62, N-(cyclopropylmethyl)-N-methyl-4-morpholino-2-[(5-phenyl-1H-pyrazol-3-yl)amino]furo[3,2-d]pyrimidine-6-carboxamide, hydrogen chloride] | 73 |
| CS(=O)(=O)NC(=O)c1cc2nc(Nc3cc(-c4ccccc4)n[nH]3)nc(N3CCOCC3)c2o1 [Compound 65, N-(methylsulfonyl)-4-morpholino-2-((3-phenyl-1H-pyrazol-5-yl)amino)furo[3,2-d]pyrimidine-6-carboxamide hydrochloride] | 235 |

Further lines, results first:

| IC50 [nM] | SMILES |
| --- | --- |
| 116 | CN1CCC(c2cc3nc(Nc4cc(-c5ccccc5)n[nH]4)nc(N4CCOCC4)c3o2)CC1 [Compound 32] |
| 59 | Cc1cccc(-c2cc(Nc3nc(N4CCOCC4)c4oc(C5CCN(C)CC5)cc4n3)[nH]n2)c1 [Compound 33] |
| 10 | CN1CCC(c2cc3nc(Nc4cc(-c5ccncc5)n[nH]4)nc(N4CCOCC4)c3o2)CC1 [Compound 34, 6-(1-methylpiperidin-4-yl)-4-morpholino-N-(3-(pyridin-4-yl)-1H-pyrazol-5-yl)furo[3,2-d]pyrimidin-2-amine hydrochloride] |
| 205 | CN1CCCC(c2cc3nc(Nc4cc(-c5ccccc5)n[nH]4)nc(N4CCOCC4)c3o2)C1 (centres unmarked) [Compound 35, 6-(1-methylpiperidin-3-yl)-4-morpholino-N-(3-phenyl-1H-pyrazol-5-yl)furo[3,2-d]pyrimidin-2-amine hydrochloride] |
| 37 | Cc1cccc(-c2cc(Nc3nc(N4CCOCC4)c4oc(C5CCCN(C)C5)cc4n3)[nH]n2)c1 (centres unmarked) [Compound 36] |
| ≥ 10000 | CN1CCCC(c2cc3nc(Nc4cc(-c5ccncc5)n[nH]4)nc(N4CCOCC4)c3o2)C1 (centres unmarked) [Compound 37] |
| 131 | CN1CCC(c2cc3nc(Nc4cc(-c5ccccc5)n[nH]4)nc(N4CCOCC4)c3o2)C1 (centres unmarked) [Compound 38] |
| 2560 | Cc1cccc(-c2cc(Nc3nc(N4CCOCC4)c4oc(C5CCN(C)C5)cc4n3)[nH]n2)c1 (centres unmarked) [Compound 39, 6-(1-methylpyrrolidin-3-yl)-4-morpholino-N-(3-(m-tolyl)-1H-pyrazol-5-yl)furo[3,2-d]pyrimidin-2-amine hydrochloride] |
| 2570 | CN1CCC(c2cc3nc(Nc4cc(-c5ccncc5)n[nH]4)nc(N4CCOCC4)c3o2)C1 (centres unmarked) [Compound 40] |
| 60 | O=C(c1cc2nc(Nc3cc(-c4ccccc4)n[nH]3)nc(N3CCOCC3)c2o1)N1CCC1 [Compound 53, azetidin-1-yl(4-morpholino-2-((3-phenyl-1H-pyrazol-5-yl)amino)furo[3,2-d]pyrimidin-6-yl)methanone hydrochloride] |
| 51 | O=C(c1cc2nc(Nc3cc(-c4ccccc4)n[nH]3)nc(N3CCOCC3)c2o1)N1CCCCC1 [Compound 55, (4-morpholino-2-((3-phenyl-1H-pyrazol-5-yl)amino)furo[3,2-d]pyrimidin-6-yl)(piperidin-1-yl)methanone hydrochloride] |
| 0.9 | C[C@@H](NC(=O)c1cc2nc(Nc3cc(-c4ccccc4)n[nH]3)nc(N3CCOCC3)c2o1)C1CC1 [Compound 64, (R)—N-(1-cyclopropylethyl)-4-morpholino-2-((5-phenyl-1H-pyrazol-3-yl)amino)furo[3,2-d]pyrimidine-6-carboxamide hydrochloride] |
